The text below walks through data of publication PMC3836994, “Killer Bee Molecules: Antimicrobial Peptides as Effector Molecules to Target Sporogonic Stages of Plasmodium” (PLoS Pathogens, 2013).

For one experiment, the system named is Plasmodium spp. The following applies: An. gambiae infected with a variety of Plasmodium spp., magainin injected into the midgut haemocoel; ref [29]; cited from earlier work. From the text: (§1) Supplement ppat.1003790.s001.doc, table 1: Table S1. Peptide sequence, activity and source. | column: Sequence and description
Experiment [1] has as its system Anopheles gambiae Sua 4.0 cells. As to the kind of experiment: Sua 4.0 mosquito cell growth (cell counts). It is filed as cell-based. The following applies: 25 µM AMP; for Average number of cells over 3 replicates, peptide: seeded 30×10^4/ml, mean of 3 experiments. How it is done: (§2) To establish potential effects of AMPs on mosquito cells, the An. gambiae Sua 4.0 cell line was used. This facilitated an initial high-throughput screening and provided insights into AMP toxicity, mode of action (lytic or other) and speed of action. Sua 4.0 cells were maintained at 27°C in Schneider's insect medium supplemented with 10% FBS (foetal bovine serum) in T25 culture flasks (Fisher, UK).
(§3) Each AMP was tested separately to establish if it affected cell viability and growth. […] Cells were maintained for 3, 6, 24 or 48 h, after which they were resuspended and a sub-sample from duplicate wells counted using a haemocytometer. To establish cell viability after 48 h (whether simply arrested in development or non-viable), resuspended cells were added to an equal volume of 5% erythrosin B vital dye and viable cells excluding the stain were counted. The viability of 100 cells in triplicate wells was recorded. Each AMP assay was performed in triplicate and included a negative control minus the peptide (5 µl of water alone added to the medium) and a further control of 5 µl of 10% SDS (sodium dodecyl sulphate) substituted for the AMP as this causes 100% cell lysis.

The subject of experiment [2] is P. falciparum. The conditions noted are these: added to blood meals at 30 µM; ref [35]; cited from earlier work. Here is the method: Some candidate AMPs were additionally investigated using P. falciparum and An. gambiae. TP10 dimer and Melittin lowered both prevalence and intensity of P. falciparum infections produced from laboratory cultures. It has already been reported that the monomer of TP10, added to blood meals at 30 µM, reduced parasite prevalence by 35–45% [35].

The next experiment has as its system P. berghei ookinetes. The experiment is described as follows: P. berghei ookinete viability in vitro (erythrosin B). It is filed as cell-based, Plasmodium berghei. The following applies: 50 µM of single peptide, 30 min. How it is done:
Our primary aim was to target parasites in mosquitoes before they cross the midgut wall, therefore AMPs were first assessed for their ability to kill ookinetes in vitro. […] Ookinete cultures of P. berghei were established from gametocytaemic blood as previously described. Parasites were enriched using cold 0.17M ammonium chloride after 18 h of culture and washed thoroughly with PBS (phosphate buffered saline). Parasites were seeded in triplicate wells of a 96-well microtitre plate at a density of 1×10^5/ml in a volume of 47.5 µl Schneider's insect medium (Invitrogen) with 2.5 µl of the test AMP (final concentration of 50 µM). Ookinetes were incubated for 30 min in conjunction with triplicate control wells containing medium with 2.5 µl of water instead of AMP. A sub-sample of parasites was then added to an equal volume of 5% erythrosin B to assess viability (150 ookinetes in total, taken from 3 wells). Each of the 33 AMPs was screened in this way and assays were performed 3 times. AMPs displaying a high degree of toxicity (>90% of ookinetes displaying erythrosin B staining) underwent further ookinete assays using a concentration of 100 µM AMP. To assess synergistic effects, combinations of two peptides were also tested at a concentration of 25 µM per AMP, in the assay described above.

In experiment [3] the test system is Anopheles gambiae Sua 4.0 cells. As to the kind of experiment: Sua 4.0 mosquito cell viability (erythrosin B exclusion). The class given is cell-based. On the set-up: dose or concentration left out as unconfirmed. The following applies: after 48 h culture; versus control. Here is the method:
as §2, §3

Experiment [4] relates to wide spectrum of microorganisms. The conditions noted are these: x as strong as magainin 2; ref [83]; cited from earlier work.
Description: as §1

Experiment [5] deals with P. falciparum. The experiment is described as follows: Field P. falciparum from gametocyte carriers membrane-fed to An. gambiae (Mali). The class given is in vivo, Plasmodium falciparum. The following applies: 50 µM. From the text: Nyaganabougou, a village approximately 60 km south-west of the Malian capital, Bamako, was used as a site for the source of donors of malaria-infected blood. Due to its proximity to the river Niger, which provides perennial mosquito breeding sites, Nyaganabougou has high numbers of infected individuals and an extended transmission season. Mosquitoes used to establish the An. gambiae Mali colony used for this study were originally collected in the village of Kenieroba (a distance of 15 km from Nyaganabougou). Potential male and female gametocyte carriers between the ages of 6–10 were screened by thick smear and parasite species and density determined by local staff, led by Saibou Doumbia.
Gametocyte carriers were taken to the Malaria Research and Training Centre at the University of Bamako for blood donation. Approximately 4 ml of blood was extracted from carriers and immediately divided into 3 Hemotek membrane feeders for testing 2 separate AMPs and one control for each carrier. Peptides were added to 950 µl of gametocytaemic blood for a final concentration of 50 µM. All parasite-positive individuals were subsequently treated appropriately for parasites and associated symptoms, as determined by, and carried out by, local health workers in Nyaganabougou.
Approximately 120 adult female An. gambiae (Mali, 4–7 days old) were starved overnight, and allowed to feed on the gametocytaemic blood/AMP mix for 30 min. Engorged females were maintained on 10% glucose with 0.05% PABA for 8 days before dissection. No oviposition sites were provided so that fecundity could be measured by determining retained eggs. Mosquito wing length, numbers of retained eggs and oocysts were recorded, and triplicate peptide experiments were carried out on different mosquito cohorts, using blood from different donors. Where possible, a minimum of 50 mosquitoes were dissected for each condition.

Consider “GIGKFLHSAKKFGKAFVGEIMNS [Magainin II, AMP from Xenopus laevis skin, forms pores]”, for which the Oocyst development abolished entry with Plasmodium spp. is “GIGKFLHSAKKFGKAFVGEIMNS. AMP from Xenopus laevis skin. Forms pores and induces cell permeabilisation. An. gambiae infected with a variety of Plasmodium spp. injected with magainin into the midgut haemocoel abolished oocyst development >80%”.
For `CC[C@H](C)[C@H](NC(=O)[C@H](CCCCN)NC(=O)[C@H](CCCCN)NC(=O)[C@H](C)NC(=O)[C@H](CC(C)C)NC(=O)[C@H](C)NC(=O)[C@H](C)NC(=O)[C@H](CC(C)C)NC(=O)[C@H](C)NC(=O)[C@H](CCCCN)NC(=O)[C@H](CC(C)C)NC(=O)[C@H](CC(N)=O)NC(=O)[C@@H](NC(=O)[C@H](CCCCN)NC(=O)CNC(=O)[C@H](CC(C)C)NC(=O)[C@H](CC(C)C)NC(=O)[C@H](Cc1ccc(O)cc1)NC(=O)CNC(=O)[C@H](C)N)[C@@H](C)CC)C(=O)N[C@@H](CC(C)C)C(=O)O` [TP10], the “Reduction in cell number (compared to control)” value in experiment [1] (3 hrs in culture) turned out to be 31%; in experiment [1] (24 hrs in culture), 23%; in experiment [1] (48 hrs in culture), 3%. In addition, the “Average number of cells over 3 replicates, peptide” value worked out at 220000 mL⁻¹ in experiment [1] (3 hrs in culture, haemocytometer count of duplicate wells); 400000 mL⁻¹ in experiment [1] (24 hrs in culture); 780000 mL⁻¹ in experiment [1] (48 hrs in culture). Moreover, the “Reduction of parasite prevalence” value in the experiment on P. falciparum [2] is listed as 35–45%. For the same compound, the “Average ookinete viability (3 reps), peptide” value in the experiment on P. berghei ookinetes (n = 150 ookinetes per treatment per replicate) was found to be 26%. In addition, the “Reduction in ookinete viability” value in the experiment with P. berghei ookinetes (versus control) is 71%. Also, the “Reduction in cell viability” value in experiment [3] worked out at 3%.
Regarding “KGRGKQGGKVRAKAKTRSS [Parasin, Parasin I, Isolated from the skin mucus of wounded catfish]”, the “Activity relative to magainin 2” value in experiment [4] is given as “KGRGKQGGKVRAKAKTRSS. Isolated from the skin mucus of wounded catfish. Strong activity (12-100x as strong as magainin 2) against a wide spectrum of microorganisms, without any haemolytic activity”. Further, the “Oocyst prevalence (oocyst positive mosquitoes), peptide” value in the experiment with P. falciparum [5] (Replicate 1, blood of gametocyte carriers, progeny of field An. gambiae) was 3% (64). The “Oocyst intensity (mean number of oocysts per gut, range in parentheses), peptide” value with P. falciparum [5] (Replicate 1, field parasites and mosquitoes) was <1 (0–2). The compound also registered a Reduction of prevalence with P. falciparum [5] (single preliminary experiment) of 80%.
